Results as given in ChEMBL document CHEMBL1156828, “Pyridinylquinoxalines and pyridinylpyridopyrazines as lead compounds for novel p38 alpha mitogen-activated protein kinase inhibitors” (J Med Chem, 2010).

biological target: Mitogen-activated protein kinase 10 (Homo sapiens, UniProt P53779); test: Inhibition of JNK3 by nonradioactive JNK3 assay
Sequence (P53779 whole entry): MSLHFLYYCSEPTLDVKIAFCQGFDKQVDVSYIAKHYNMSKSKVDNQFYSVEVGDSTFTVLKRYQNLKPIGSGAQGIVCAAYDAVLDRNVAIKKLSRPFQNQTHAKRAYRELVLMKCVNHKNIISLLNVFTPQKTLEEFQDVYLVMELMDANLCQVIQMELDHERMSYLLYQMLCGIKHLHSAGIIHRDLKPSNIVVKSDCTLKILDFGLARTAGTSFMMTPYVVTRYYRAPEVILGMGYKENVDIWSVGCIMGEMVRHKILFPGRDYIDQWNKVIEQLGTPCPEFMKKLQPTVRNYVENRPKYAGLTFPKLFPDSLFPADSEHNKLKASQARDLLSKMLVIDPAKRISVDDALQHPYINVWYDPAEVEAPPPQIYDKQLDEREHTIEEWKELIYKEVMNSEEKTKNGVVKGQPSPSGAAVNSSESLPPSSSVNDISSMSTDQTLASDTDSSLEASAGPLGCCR

| SMILES | IC50 [nM] |
| --- | --- |
| CC(C)Nc1cc(-c2nc3ccccc3nc2-c2ccc(F)cc2)ccn1 | 3950 |

biological target: T1, Mitogen-activated protein kinase 14 (Homo sapiens, UniProt Q16539); test: Inhibition of p38alpha-mediated ATF2 phosphorylation at 10 uM in presence of ATP
T1 sequence (Q16539 whole entry): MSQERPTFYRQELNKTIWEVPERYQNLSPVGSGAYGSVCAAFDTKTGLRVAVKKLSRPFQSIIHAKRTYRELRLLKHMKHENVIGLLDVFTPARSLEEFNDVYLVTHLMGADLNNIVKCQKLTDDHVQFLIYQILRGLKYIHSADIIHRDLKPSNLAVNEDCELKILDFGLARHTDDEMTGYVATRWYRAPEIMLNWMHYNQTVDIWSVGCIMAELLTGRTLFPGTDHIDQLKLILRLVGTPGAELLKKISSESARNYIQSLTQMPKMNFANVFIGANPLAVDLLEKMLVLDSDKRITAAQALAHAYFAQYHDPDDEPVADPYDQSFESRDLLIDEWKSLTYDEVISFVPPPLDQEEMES

| SMILES | inhibition [%] |
| --- | --- |
| Fc1ccc(-c2nc3ccccc3nc2-c2ccnc(NCc3ccccc3)c2)cc1 | 9 |
| Fc1ccc(-c2nc3cc(Cl)c(Cl)cc3nc2-c2ccnc(NCc3ccccc3)c2)cc1 | 37 |
| COc1ccc2nc(-c3ccc(F)cc3)c(-c3ccncc3)nc2c1 | 33 |
| Fc1ccc(-c2nc3cc(Cl)c(Cl)cc3nc2-c2ccncc2)cc1 | 39 |
| Fc1ccc(-c2nc3cccnc3nc2-c2ccncc2)cc1 | 46 |

biological target: T1, Mitogen-activated protein kinase 14; test: Inhibition of p38alpha-mediated ATF2 phosphorylation in presence of ATP

| SMILES | IC50 [nM] |
| --- | --- |
| CC(C)Nc1cc(-c2nc3cccnc3nc2-c2ccc(F)cc2)ccn1 | 38 |
| CCC(C)Nc1cc(-c2nc3ccccc3nc2-c2ccc(F)cc2)ccn1 (stereo not given) | 114 |
| O[C@H]1CC[C@H](Nc2cc(-c3nc4ccccc4nc3-c3ccc(F)cc3)ccn2)CC1 | 211 |
| CC(C)C(C)Nc1cc(-c2nc3ccccc3nc2-c2ccc(F)cc2)ccn1 (stereo not given) | 790 |
| CC(C)Nc1cc(-c2nc3ncccc3nc2-c2ccc(F)cc2)ccn1 | 333 |
| CC(C)Nc1cc(-c2nc3cc(Cl)c(Cl)cc3nc2-c2ccc(F)cc2)ccn1 | 412 |
| Fc1ccc(-c2nc3ncccc3nc2-c2ccncc2)cc1 | 3190 |
| Cc1cc2nc(-c3ccc(F)cc3)c(-c3ccnc(NC(C)C)c3)nc2cc1C | 238 |
| Cc1cc2nc(-c3ccc(F)cc3)c(-c3ccnc(NCc4ccccc4)c3)nc2cc1C | 1530 |
| Fc1ccc(-c2nc3ccccc3nc2-c2ccncc2)cc1 | 3150 |
| CC(Nc1cc(-c2nc3ccccc3nc2-c2ccc(F)cc2)ccn1)c1ccccc1 (stereo not given) | 720 |
| Cc1cc2nc(-c3ccc(F)cc3)c(-c3ccnc(N[C@H]4CC[C@H](O)CC4)c3)nc2cc1C | 259 |
| CC(C)C(C)Nc1cc(-c2nc3cc(Cl)c(Cl)cc3nc2-c2ccc(F)cc2)ccn1 (stereo not given) | 9460 |
| C[C@@H](Nc1cc(-c2nc3ccccc3nc2-c2ccc(F)cc2)ccn1)c1ccccc1 | 4790 |
| O[C@H]1CC[C@H](Nc2cc(-c3nc4cc(Cl)c(Cl)cc4nc3-c3ccc(F)cc3)ccn2)CC1 | 608 |
| CCC(C)Nc1cc(-c2nc3cc(C)c(C)cc3nc2-c2ccc(F)cc2)ccn1 (stereo not given) | 595 |
| CC(C)[C@@H](C)Nc1cc(-c2nc3ccccc3nc2-c2ccc(F)cc2)ccn1 | 1590 |
| CC(C)CNc1cc(-c2nc3ccccc3nc2-c2ccc(F)cc2)ccn1 | 642 |
| CC(C)[C@H](C)Nc1cc(-c2nc3ccccc3nc2-c2ccc(F)cc2)ccn1 | 576 |
| COc1ccc2nc(-c3ccncc3)c(-c3ccc(F)cc3)nc2c1 | 6140 |
| Cc1cc2nc(-c3ccc(F)cc3)c(-c3ccnc(NC(C)C(C)C)c3)nc2cc1C (stereo not given) | 1380 |
| CC(C)Nc1cc(-c2nc3ccccc3nc2-c2ccc(F)cc2)ccn1 | 81 |
| Cc1cc2nc(-c3ccncc3)c(-c3ccc(F)cc3)nc2cc1C | 3700 |
| C[C@H](Nc1cc(-c2nc3ccccc3nc2-c2ccc(F)cc2)ccn1)c1ccccc1 | 431 |
